Laboratory results: patent US11524966B1 (Valo Early Discovery, Inc., priority 2017, dated 2022)

Target: T1, USP28 (His-tagged USP28-FL-mammalian) (Homo sapiens, UniProt Q96RU2)
T1 construct: Expression of USP28 (1-1077)-TEV-6*His (pTT5 vector); made in house; host or cells: Expi293f cells (pTT5 vector)
T1 sequence (Q96RU2 1-1077): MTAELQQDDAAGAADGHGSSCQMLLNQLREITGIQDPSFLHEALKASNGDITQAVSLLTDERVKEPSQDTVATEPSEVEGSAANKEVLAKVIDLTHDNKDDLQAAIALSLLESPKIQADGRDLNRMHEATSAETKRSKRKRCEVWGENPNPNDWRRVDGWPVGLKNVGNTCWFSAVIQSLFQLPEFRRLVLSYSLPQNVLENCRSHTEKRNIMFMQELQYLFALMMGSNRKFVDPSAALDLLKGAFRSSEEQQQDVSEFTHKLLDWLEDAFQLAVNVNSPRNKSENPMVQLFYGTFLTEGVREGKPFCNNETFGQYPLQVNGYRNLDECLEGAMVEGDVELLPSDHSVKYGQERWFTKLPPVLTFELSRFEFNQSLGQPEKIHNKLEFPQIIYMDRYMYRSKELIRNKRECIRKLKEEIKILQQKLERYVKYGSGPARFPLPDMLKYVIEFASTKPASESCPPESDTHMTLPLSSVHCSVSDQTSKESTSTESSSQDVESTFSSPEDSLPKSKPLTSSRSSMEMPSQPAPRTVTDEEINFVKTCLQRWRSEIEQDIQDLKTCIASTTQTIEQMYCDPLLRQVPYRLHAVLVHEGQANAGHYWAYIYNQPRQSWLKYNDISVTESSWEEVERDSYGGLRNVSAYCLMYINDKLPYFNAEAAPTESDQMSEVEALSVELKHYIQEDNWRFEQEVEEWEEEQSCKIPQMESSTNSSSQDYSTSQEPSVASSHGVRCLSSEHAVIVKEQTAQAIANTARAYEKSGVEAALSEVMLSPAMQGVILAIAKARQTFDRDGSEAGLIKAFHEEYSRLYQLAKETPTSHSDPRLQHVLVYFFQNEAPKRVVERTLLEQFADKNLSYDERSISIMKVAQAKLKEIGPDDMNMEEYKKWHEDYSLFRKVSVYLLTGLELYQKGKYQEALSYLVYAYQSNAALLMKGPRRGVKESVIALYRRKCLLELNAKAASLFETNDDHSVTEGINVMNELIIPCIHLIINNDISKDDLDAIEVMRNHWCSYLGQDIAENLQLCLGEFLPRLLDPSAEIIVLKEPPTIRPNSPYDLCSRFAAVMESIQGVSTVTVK
Assay: Ubiquitin-Rhodamine 110 Assay for USP28 Activity, Example A-1(a)
Format: biochemical
Conditions: Ubiquitin-Rhodamine 110 assay, Example A-1(a); read-out: USP28 A-1(a) IC50 range
Outline: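 Full-length His-tagged USP28 (1-1077, Expi293F-expressed; […]) was preincubated 30 min with compound (25 μM–1.3 nM, 10-point 3-fold) in 20 mM Tris-HCl pH 8.0, 3 mM BME, 0.03% BGG, 0.01% Triton X-100. Ub-Rh110 (25 nM) was then added for 45 min at room temperature, stopped with citric acid, and read by fluorescence (485/535 nm).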

**Q.** How did the IC50 turn out when Cc1ccc2c(N)c(C(=O)N[C@H]3COc4c(C#N)c(N5CC6CCC(C5)N6)cc(F)c4C3)sc2n1 [Example 95, 3-amino-N-[(3R)-8-cyano-7-{3,8-diazabicyclo[3.2.1]octan-3-yl}-5-fluoro-3,4-dihydro-2H-1-benzopyran-3-yl]-6-methylthieno[2,3-b]pyridine-2-carboxamide] was run?
**A.** 1 to 50 nM

**Q.** Which IC50 does the source give for CCn1ccc2cc(C(=O)N[C@@H]3CCc4cc(N5C[C@H](OC)[C@@H](N)C5)cc(F)c4C3)nnc21 [Example 139, N-[(2R)-6-[(3S,4S)-3-amino-4-methoxypyrrolidin-1-yl]-8-fluoro-1,2,3,4-tetrahydronaphthalen-2-yl]-7-ethyl-7H-pyrrolo[2,3-c]pyridazine-3-carboxamide] here?
**A.** > 2000 nM

**Q.** How did the IC50 turn out when CO[C@H]1CN(c2cc(F)c3c(c2)OC[C@H](NC(=O)c2sc4nc(C)ccc4c2N)C3)C[C@H]1N [Example 146] was run?
**A.** 1 to 50 nM

**Q.** With Cc1ccc2c(N)c(C(=O)N[C@H]3CCc4c(ccc(N5CC6CNCC(C5)O6)c4F)C3)sc2n1 [Example 99, 3-amino-N-[(2S)-5-fluoro-6-{9-oxa-3,7-diazabicyclo[3.3.1]nonan-3-yl}-1,2,3,4-tetrahydronaphthalen-2-yl]-6-methylthieno[2,3-b]pyridine-2-carboxamide] as the compound, how does the IC50 read?
**A.** 1 to 50 nM

**Q.** For CO[C@H]1CN(c2ccc3c(c2)OC[C@H](NC(=O)c2sc4nc(C)sc4c2N)C3)C[C@H]1N [Example 150], which IC50 is on record?
**A.** 50 to 200 nM

**Q.** With CO[C@@H]1CN(c2ccc3c(c2)CC[C@H](NC(=O)c2sc4nc(C)ccc4c2N)C3)C[C@@H]1N [Example 143, 3-amino-N-[(2S)-6-[(3S,4R)-3-amino-4-methoxypyrrolidin-1-yl]-1,2,3,4-tetrahydronaphthalen-2-yl]-6-methylthieno[2,3-b]pyridine-2-carboxamide] as the compound, how does the IC50 read?
**A.** 1 to 50 nM

**Q.** With Cc1ccc2c(N)c(C(=O)N[C@@H]3CCc4c(ccc(N5CC6CNCC(C5)O6)c4F)C3)sc2n1 [Example 100, 3-amino-N-[(2R)-5-fluoro-6-{9-oxa-3,7-diazabicyclo[3.3.1]nonan-3-yl}-1,2,3,4-tetrahydronaphthalen-2-yl]-6-methylthieno[2,3-b]pyridine-2-carboxamide] as the compound, how does the IC50 read?
**A.** 50 to 200 nM

**Q.** For CCO[C@H]1CN(c2ccc3c(n2)CC[C@H](NC(=O)c2sc4nc(C)ccc4c2N)C3)C[C@@H]1N [Example 142, 3-amino-N-[(6S)-2-[(3S,4S)-3-amino-4-ethoxypyrrolidin-1-yl]-5,6,7,8-tetrahydroquinolin-6-yl]-6-methylthieno[2,3-b]pyridine-2-carboxamide], which IC50 is on record?
**A.** 200 to 2000 nM

**Q.** Which IC50 does the source give for CO[C@H]1CCN(c2ccc3c(c2)OC[C@H](NC(=O)c2sc4nc(C)ccc4c2N)C3)C[C@@H]1N [Example 119, 3-amino-N-[(3R)-7-[(3S,4S)-3-amino-4-methoxypiperidin-1-yl}-3,4-dihydro-2H-1-benzopyran-3-yl]-6-methylthieno[2,3-b]pyridine-2-carboxamide] here?
**A.** 50 to 200 nM

**Q.** How did the IC50 turn out when Cc1cnc2c(N)c(C(=O)N[C@H]3COc4cc(N5CC6CCC(C5)N6)c(F)c(F)c4C3)sc2n1 [Example 97, 7-amino-N-[(3R)-7-{3,8-diazabicyclo[3.2.1]octan-3-yl]-5,6-difluoro-3,4-dihydro-2H-1-benzopyran-3-yl]-3-methylthieno[2,3-b]pyrazine-6-carboxamide] was run?
**A.** 1 to 50 nM

**Q.** Cc1ccc2c(N)c(C(=O)N[C@H]3COc4cc(N5CC[C@H]6CNC[C@H]65)ccc4C3)sc2n1 [Example 166, N-[(3R)-7-[(3aS,6aS)-octahydropyrrolo[2,3-c]pyrrol-1-yl]-3,4-dihydro-2H-1-benzopyran-3-yl]-3-amino-6-methylthieno[2,3-b]pyridine-2-carboxamide] was tested. Which IC50 did it give?
**A.** 1 to 50 nM

**Q.** With Cc1ccc2c(N)c(C(=O)N[C@H]3COc4cc(N5C[C@@H]6C[C@H]5CN6)c(F)c(F)c4C3)sc2n1 [Example 112, 3-amino-N-[(3R)-7-[(1S,4S)-2,5-diazabicyclo[2.2.1]heptan-2-yl]-5,6-difluoro-3,4-dihydro-2H-1-benzopyran-3-yl]-6-methylthieno[2,3-b]pyridine-2-carboxamide] as the compound, how does the IC50 read?
**A.** 1 to 50 nM

**Q.** CO[C@H]1CN(c2ccc3c(c2)OC[C@H](NC(=O)c2sc4nc(C)ccc4c2N)C3)CC[C@@H]1N [Example 128, 3-amino-N-[(3R)-7-[(3S,4S)-4-amino-3-methoxypiperidin-1-yl]-3,4-dihydro-2H-1-benzopyran-3-yl]-6-methylthieno[2,3-b]pyridine-2-carboxamide] was tested. Which IC50 did it give?
**A.** 1 to 50 nM

**Q.** For Cc1ccc2c(N)c(C(=O)N[C@H]3COc4c(F)c(N5C[C@@H]6C[C@H]5CN6)cc(F)c4C3)sc2n1 [Example 110, 3-amino-N-[(3R)-7-[(1S,4S)-2,5-diazabicyclo[2.2.1]heptan-2-yl]-5,8-difluoro-3,4-dihydro-2H-1-benzopyran-3-yl]-6-methylthieno[2,3-b]pyridine-2-carboxamide], which IC50 is on record?
**A.** 1 to 50 nM

**Q.** COC[C@H]1CN(c2ccc3c(c2)OC[C@H](NC(=O)c2sc4nc(C)ccc4c2N)C3)C[C@H]1N [Example 162, 3-amino-N-[(3R)-7-[(3S,4S)-3-amino-4-(methoxymethyl)pyrrolidin-1-yl]-3,4-dihydro-2H-1-benzopyran-3-yl]-6-methylthieno[2,3-b]pyridine-2-carboxamide] was tested. Which IC50 did it give?
**A.** 1 to 50 nM

**Q.** CO[C@@H]1CN(c2cc(F)c3c(c2)OC[C@H](NC(=O)c2sc4nc(C)ccc4c2N)C3)C[C@@H]1N [Example 145, 3-amino-N-[(3R)-7-[(3S,4R)-3-amino-4-methoxypyrrolidin-1-yl]-5-fluoro-3,4-dihydro-2H-1-benzopyran-3-yl]-6-methylthieno[2,3-b]pyridine-2-carboxamide] was tested. Which IC50 did it give?
**A.** 1 to 50 nM

**Q.** Which IC50 does the source give for CO[C@H]1CN(c2ccc3c(c2)OC[C@H](NC(=O)c2sc4nc(C)cnc4c2N)C3)C[C@@H]1N [Example 117, 7-amino-N-[(3R)-7-[(3S,4S)-3-amino-4-methoxypyrrolidin-1-yl]-3,4-dihydro-2H-1-benzopyran-3-yl]-3-methylthieno[2,3-b]pyrazine-6-carboxamide] here?
**A.** 1 to 50 nM

**Q.** With Cc1ccc2c(N)c(C(=O)N[C@H]3COc4c(ccc(N5CC6CCC(C5)N6)c4F)C3)sc2n1 [Example 103, 3-amino-N-[(3R)-7-{3,8-diazabicyclo[3.2.1]octan-3-yl}-8-fluoro-3,4-dihydro-2H-1-benzopyran-3-yl]-6-methylthieno[2,3-b]pyridine-2-carboxamide] as the compound, how does the IC50 read?
**A.** 1 to 50 nM

**Q.** Which IC50 does the source give for CO[C@H]1CN(c2cc(F)c3c(c2)CC[C@@H](NC(=O)c2sc4nc(C)ccc4c2N)C3)C[C@@H]1N [Example 137, 3-amino-N-[(2R)-6-[(3S,4S)-3-amino-4-methoxypyrrolidin-1-yl]-8-fluoro-1,2,3,4-tetrahydronaphthalen-2-yl]-6-methylthieno[2,3-b]pyridine-2-carboxamide] here?
**A.** 50 to 200 nM

**Q.** For Cc1ccc2c(N)c(C(=O)N[C@H]3COc4cc(N5CC6CNCC(C5)O6)c(F)cc4C3)sc2n1 [Example 106, 3-amino-N-[(3R)-6-fluoro-7-{9-oxa-3,7-diazabicyclo[3.3.1]nonan-3-yl}-3,4-dihydro-2H-1-benzopyran-3-yl]-6-methylthieno[2,3-b]pyridine-2-carboxamide], which IC50 is on record?
**A.** 1 to 50 nM

**Q.** With Cc1ccc2c(N)c(C(=O)N[C@H]3COc4cc(N5CC6CCC(C5)N6)cc(F)c4C3)oc2n1 [Example 170, 3-amino-N-[(3R)-7-{3,8-diazabicyclo[3.2.1]octan-3-yl}-5-fluoro-3,4-dihydro-2H-1-benzopyran-3-yl]-6-methylfuro[2,3-b]pyridine-2-carboxamide] as the compound, how does the IC50 read?
**A.** 200 to 2000 nM
